Laboratory results taken from US20080248008A1, “Inhibitors of Protein Kinase a Anchoring” (priority 2004, published 2008).

Legend:
Assay type in all cases: cell-based
PKA-RIα = target: T1, PKA-RIα (Mus musculus, UniProt Q9DBC7); assay: Immunofluorescence of PKA-RIα at mitochondria in Y1 adrenal cells
T1 construct: host or cells: mouse Y-1 adrenocortical cells
Procedure: Mouse adrenocortical Y1 cells were obtained from ATCC (Cat. No. CCL-79) and maintained in DMEM/HAM'S F-12 (Cat. No. E15-813, PAA Laboratories GmbH, Pasching, Austria) supplemented with 100 μg/ml streptomycin, 100 U/ml penicillin and 10% (v/v) fetal calf serum in a humidified atmosphere of 5% CO2 and split by trypsination at less than 80% confluence.
Immunofluorescence analysis of cells was performed as previously described (Collas, P. et al., 1996, J. Cell Biol. 135, 1715-1725). RI was detected by using an anti-RI monoclonal antibody (Transduction Laboratories) as a primary antibody at a […] and Alexa-488 as a secondary antibody (1:600, Goat anti Mouse IgGs, Molecular Probes). Immunofluorescence was performed on Y1 cells attached to collagen/fibronectin coated coverslips. Mitochondria were stained using MitoTracker Red CMXRos (Molecular Probes) in fresh medium with incubation at 37° C. for 30 min prior to cell fixation. All cells were washed in PBS, fixed with 3% paraformaldehyde and permeabilised using 0.1% Triton X-100. Proteins were blocked in 2% BSA/PBST prior to antibody labeling. […] Alternatively, fluorescently labeled cells were examined using a Leica TCS SP1 confocal fluorescence microscope (Leica, Heidelberg, Germany) equipped with an Ar (488 nm) and two He/Ne (543 and 633 nm) laser lines. […]

PKA-RIIα = PKA-RIIα (Homo sapiens, UniProt P13861); assay: Displacement of PKA-RII from the particulate fraction in T cells; parameters: endogenous in cells; host or cells: human peripheral blood CD3+ T cells; details: increasing concentrations, relative to PKCα
PKA-RIIα, sequence (P13861 whole entry): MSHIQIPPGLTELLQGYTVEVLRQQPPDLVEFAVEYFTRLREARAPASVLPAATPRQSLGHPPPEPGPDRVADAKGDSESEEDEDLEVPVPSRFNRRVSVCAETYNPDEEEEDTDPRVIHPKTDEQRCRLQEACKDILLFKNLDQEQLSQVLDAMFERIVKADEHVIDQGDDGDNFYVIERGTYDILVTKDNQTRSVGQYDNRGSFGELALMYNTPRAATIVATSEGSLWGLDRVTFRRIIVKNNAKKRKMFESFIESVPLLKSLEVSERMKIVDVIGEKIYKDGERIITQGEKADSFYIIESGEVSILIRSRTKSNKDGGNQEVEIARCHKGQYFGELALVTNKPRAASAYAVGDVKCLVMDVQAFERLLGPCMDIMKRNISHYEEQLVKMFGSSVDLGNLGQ
Procedure: Displacement of PKA-RII from the particulate Fraction in T-cells. Negatively selected CD3^+ T-cells (20×10^6/3 ml/well) were cultured in 6-well plates with 0-50 μM Arg11-SuperAKAPIS (or 0-50 μM M3-Arg11) for 12 hours. Cells were lysed in 250 μl lysis buffer (50 mM Tris pH 7.4, 100 mM NaCl, 5 mM EDTA, 50 mM NaF, 10 mM Na-pyrofosfat, 1 mM Na3VO4, 1 mM PMSF, 0.7% triton X-100) and centrifuged at 14 000×g for 10 min. The sedimented proteins were resuspended in loading dye before being resolved by SDS/PAGE and detected by immunoblotting.
To assess the effect of MEME3-Arg11 on anchoring of PKA type II, T cells were treated with MEME3-Arg11 or Arg11-super-AKAP-is (as a positive control) and particulate fractions were isolated, followed by 10% PAGE and blotting onto a PVDF membrane (fraction no. 2-4, FIG. 17 in upper panel) and analysed by immunoblotting using antibodies against PKA-RIIα (FIG. 17, upper panel). The levels of PKA-RIIα in the particulate fractions were measured by densitometry of the autoradiograms (lower panel). The level of PKA-RIIα was set relative to that of the internal standard PKCα.

RII = target: T2, RII (Homo sapiens, UniProt P13861); assay: Co-immunoprecipitation with RII in transfected HEK293 cells; details: HEK293 cells transfected with GFP-fusion constructs
T2 construct: endogenous in cells; host or cells: HEK293
T2 sequence (P13861 whole entry, the tested form may be a part): as the sequence (P13861 whole entry) above
Procedure: HEK293 cells at […] were transfected with ten μg of plasmid DNA (GFP, GFP-MEME3 or GFP-Scrambled MEME3) by using the CaCl2 method. Cells were lysed after 30 hours in lysis buffer (20 mM Hepes, pH 7.5/150 mM NaCl/1 mM EDTA/1% Triton X-100) with protease inhibitors (Complete Mini, EDTA-free tablets, Roche).
Immunoblot analysis. Immunocomplexes and lipid raft fractions were analysed on a 10, 15% or 4-20% PAGE and blotted onto PVDF membranes. The filters were blocked in 5% non-fat dry milk in TBST for 30 minutes at RT, incubated 1 hour at RT (or overnight at 4° C.) with primary antibodies, washed four times 5 minutes in TBST with 0.1% Tween-20 and incubated with a horseradish-peroxidase-conjugated secondary antibody. Blots were developed by using Supersignal West Dura Extended Duration Substrate or Supersignal West Pico substrate (Pierce).
Antibodies. RI or RII were immunoprecipitated with polyclonal antibodies against human RI or human RII at a 3 μg/ml dilution (Santa Cruz Biotechnology). MEME3 or scrambled peptide was immunoprecipitated with 1.5 μl of anti-GFP antiserum (Invitrogen). […]
Immunocomplexes were analysed on 10% PAGE (B and C) or 15% PAGE (D) and subjected to Western blotting using anti-GFP, anti-RI or anti-RII as indicated and blotted onto PVDF membranes. […]

Row | Compound | displacement of PKA-RIα from mitochondria (PKA-RIα) | PKA-RIIα in particulate fraction (PKA-RIIα) | co-precipitation with RII (RII)
1 | LEQYANQLADQIIKEATERRRRRRRRRrr [MEME3-Arg11] | displaced from mitochondria | No reduction in PKA-RIIα | 
2 | CC[C@H](C)[C@H](NC(=O)[C@H](CCC(N)=O)NC(=O)[C@H](CC(=O)O)NC(=O)[C@H](C)NC(=O)[C@H](CC(C)C)NC(=O)[C@H](CCC(N)=O)NC(=O)[C@H](CC(N)=O)NC(=O)[C@H](C)NC(=O)[C@H](Cc1ccc(O)cc1)NC(=O)[C@H](CCC(N)=O)NC(=O)[C@H](CCC(=O)O)NC(=O)[C@@H](N)CC(C)C)C(=O)N[C@H](C(=O)N[C@@H](CCCCN)C(=O)N[C@@H](CCC(=O)O)C(=O)N[C@@H](C)C(=O)N[C@H](C(=O)N[C@@H](CCC(=O)O)C(=O)N[C@@H](CCCCNC(=O)c1ccc2c(c1)C(=O)OC21c2ccc(O)cc2Oc2cc(O)ccc21)C(N)=O)[C@@H](C)O)[C@@H](C)CC [MEME3] |  |  | not with RII
